The source of these data is PMC5460016, “Inhibition of gelatinase B/MMP-9 does not attenuate colitis in murine models of inflammatory bowel disease” (Nature Communications, 2017).

The subject of data set [1] is C57BL/6J mice with acute DSS-induced colitis. Briefly: Treatment of acute DSS-induced colitis with peptide inhibitors. Particulars: for severity of intestinal inflammation by histopathological analysis (histological inflammation and activity scores): all three administration schemes (therapeutic, prophylactic, osmotic pump); for body weight loss at time of killing: Mann-Whitney U.
Excerpt: Acute and chronic dextran sodium sulphate (DSS) colitis were induced as described previously[13][39]. Acute colitis was induced in 8–10 weeks old male and female mice by oral administration of 2–3% DSS (35–50 kDa; MP Biomedicals, Illkirch, France) in the drinking water during 7 days followed by 2–3 days on normal drinking water. All mice were killed at day 9 (Fig. 1a). […] Control mice (WT and MMP-9^−/−) received normal drinking water throughout the duration of the experiment. The body weight of the mice was monitored daily or every other day in case of the acute model, whereas in the chronic model, body weight was followed every 3–4 days. Of importance, WT and MMP-9^−/− mice were co-housed (maximally 5 mice per cage) during the experiments ensuring identical environmental conditions as well as controlling for cage-related effects (for example, coprophagia and intake of food and (DSS-supplemented) drinking water). Both the acute and chronic DSS experiments were repeated three times whereby results could be replicated each time and in total 79 mice were used in the acute models and 35 mice in the chronic models. The number of mice needed was estimated based on previous experience[13] and included at least 5 mice per group to ensure adequate power of detection. […] These mice were excluded from further analyses. […] No randomization was applied before start of the experiments.
Animals were euthanized with sodium pentobarbital (Nembutal, Ovation Pharmaceuticals Inc. Deerfield, USA). The DAI was calculated based on three parameters: loss of body weight (one point for each 5% loss of body weight), consistency of stools (normal=0, soft=2, liquid=4) and presence of gross blood in stools (0=none, 1=present)[13][39]. The colon was isolated, weighted and its length measured from the ileocecal junction to the anus. […] The macroscopic damage score was calculated based on extent of inflammation along the colon (in cm, multiplied by 2 if severe), colonic mesenterial adhesion (0=none, 1=mild, 2=severe) and colonic hyperaemia (0=none and 1=present)[13][39].
Acute colitis was induced in male and female mice via administration of 2% DSS in the drinking water for 7 days followed by 2–4 days on normal drinking water.

For data set [2], the system named is Mmp3, Mmp8, Mmp9 mRNA in colonic mouse tissue. As to the kind of experiment: Colonic mRNA expression of Mmps (quantitative RT-PCR) after peptide inhibitor administration. The class given is in vivo. Particulars: DSS mice. The source says: Figure 10 Relative mRNA expression of specific Mmps and Tace after administration of peptide MMP inhibitors. Relative mRNA expression measured in colonic mouse tissue after a therapeutic injection scheme (n=16) (a), a prophylactic injection scheme (n=23) (b) and continuous osmotic pump delivery (n=22) (c) of peptide inhibitors A and B. Expression levels were normalized to the control condition (water+saline) and 18S with the use of the 2-delta delta CT method. Mean values with s.e.m. are shown. Statistical analyses were performed with Mann–Whitney U tests (*P<0.05, **P≤0.01; NS, not significant). Colour codes are similar as in Figs 8 and 9.
Snap-frozen mouse colonic fragments were mechanically homogenized with the use of Precellys 24 homogenizer (VWR, Leuven, Belgium). Total RNA was extracted according to the manufacturer's guidelines (RNeasy Mini kit, Qiagen, Hilden, Germany, #74104) and quantified with the use of a Nanodrop ND-1000 Spectrophotometer (Isogen Life Science, Temse, Belgium). cDNA was synthesized with the use of High-Capacity cDNA Reverse Transcription Kit (Applied Biosystems, Foster City, CA, USA). Mmp3, Mmp8, Mmp9 and Tace mRNA levels were analysed in duplicate on 25 ng cDNA by quantitative RT-PCR with the use of TaqMan Universal PCR Master Mix from Applied Biosystems and primer and probe sets from Integrated DNA Technologies (Leuven, Belgium; Supplementary Table 3). Data were normalized to 18S ribosomal RNA levels.

For data set [3] the following is noted: competitive ELISA, plasma of DSS-treated mice, all three administration schemes. How it is done: To ensure that therapeutic levels of peptide inhibitors A and B were attained during all three administration schemes, plasma levels were measured with competitive ELISAs as described previously.
Supplementary figure 8: Levels of peptide inhibitors A and B in plasma of DSS-treated mice at time of sacrifice. (a) Plasma levels of peptide inhibitor A measured with ELISA in DSS-treated mice that received either peptide inhibitor A (n=19) or saline (n=9) injections for all three different administration schemes (therapeutic, prophylactic and continuous).
(b) Similar ELISA analyses […]
were performed for detection of peptide inhibitor B in plasma of DSS-treated mice (n=19). This […]
similar as in Figures 9 and 10. Box plots are shown with 5-95 percentiles.
(1 picture or pasted object on this page, not shown here)
(In an ELISA, binding on a coated surface is turned into a signal by an enzyme label.)

The next data set relates to MMP-9. As to conditions: Supplementary table 2; no method in this paper; known effects; read-out: IC50 towards MMP-9; cited from earlier work. The source says:
(§1) page 11: Supplementary table 2: IC50 values of peptide inhibitors A and B towards MMP -3, -8, -9 and TACE (μM). Name Peptide sequences† MMP-3 MMP-8 MMP-9 TACE Peptide inhibitor […] No inhibition 17.6 12.5 7.0 (CPU 1) Peptide inhibitor […] 7.0 0.036 0.16 15 (CPU 2) † Peptide sequences are in one-letter codes for amino acids. Pyr stands for pyridylalanine. Supplementary table 3: Primer sequences used for qRT-PCR analyses. Gene Forward primer Reverse primer Probe Mmp3 [NT] Mmp8 ...

In another data set the test system is TACE. Particulars: Supplementary table 2; no method in this paper; known effects; read-out: IC50 towards TACE; cited from earlier work.
Excerpt: as §1

The subject of the next data set is MMP-3. Particulars: Supplementary table 2, no method in this paper, known effects, cited from earlier work.
Excerpt: as §1

For a further data set, the system named is MMP-8. Particulars: Supplementary table 2; no method in this paper; known effects; read-out: IC50 towards MMP-8; cited from earlier work.
Excerpt: as §1

Setting [4] is: continuous osmotic pump delivery, DSS mice, versus saline.
The mark [5] stands for this setting: prophylactic scheme: daily i.p. 250 μg from day 1, 2% DSS mice, versus saline.
The mark [6] stands for this setting: therapeutic or prophylactic schemes (daily i.p. 250 μg), DSS mice.
[7] abbreviates: therapeutic scheme: daily i.p. 250 μg from day 6, 2% DSS mice, versus saline.

As to “IVRRADRAAVP-GGGG-P(Pyr)CBRGE [Peptide inhibitor B]”, the “severity of intestinal inflammation by histopathological analysis (histological inflammation and activity scores)” value in data set [1] (DSS mice) is listed as “did not observe a significant effect”. The “other colonic measurements (colon weight, colon/body weight ratio and colon weight/length ratio)” value in data set [1] (setting [4]) is “not significantly different”. Besides, the body weight loss result in data set [1] (setting [5]) is “no differences were observed”. Also, the “disease activity index (DAI)” value in data set [1] (setting [5]) is recorded as “not significantly different”; in data set [1] (setting [7]), “higher”. Further, the macroscopic damage score result in data set [1] (setting [6]) is recorded as “not altered”. Further, the “body weight loss at time of killing” value in data set [1] (setting [7]) is recorded as “significantly more body weight loss”. Besides, in data set [2] (continuous osmotic pump delivery, compared to saline), the “colonic Mmp8 and Mmp3 mRNA expression” value is “significantly higher”. The “colonic Mmp9 mRNA expression” value in data set [2] (continuous osmotic pump delivery, compared with peptide inhibitor A or saline) is on record as “significantly increased”. The “colonic expression of Mmp9 mRNA” value in data set [2] (prophylactic scheme, compared to saline, qRT-PCR normalized to 18S) is on record as “significantly increased expression of Mmp9”. Moreover, the “colonic expression of Mmp3, Mmp8 and Mmp9 mRNA” value in data set [2] (therapeutic scheme, compared to peptide inhibitor A or saline, qRT-PCR normalized to 18S) was “appeared to be higher”. The “plasma levels of peptide inhibitor at time of sacrifice” value in data set [3] is recorded as “inhibitory plasma levels were indeed reached”. Moreover, the IC50 (usually the concentration that inhibits the measured activity by half) with MMP-9 is 0.16 µM; with TACE, 15 µM; in the data set on MMP-3 (read-out: IC50 towards MMP-3), 7 µM; with MMP-8 it was 0.036 µM.
Regarding “P(Pyr)CBRGE-GGGG-IVRRADRAAVP [Peptide inhibitor A]”, the “severity of intestinal inflammation by histopathological analysis (histological inflammation and activity scores)” value in data set [1] (DSS mice) is recorded as “did not observe a significant effect”. For the same substance, the colon length result in data set [1] (continuous osmotic pump delivery, DSS mice, versus peptide inhibitor B or saline) is listed as “significantly longer”. The figures for the macroscopic damage score result in data set [1] (setting [4]) and in data set [1] (setting [6]) were “lower macroscopic damage score” and “not altered”, respectively. The “other colonic measurements (colon weight, colon/body weight ratio and colon weight/length ratio)” value in data set [1] (setting [4]) is recorded as “not significantly different”. Also, the body weight loss result is recorded as “mild protection with lower loss of body weight” in data set [1] (continuous s.c. osmotic pump delivery, 30 mg kg−1 per day, DSS mice, versus peptide inhibitor B and saline); “no differences were observed” in data set [1] (setting [5]). For the same substance, the “disease activity index (DAI)” value in data set [1] (continuous s.c. osmotic pump delivery, 30 mg kg−1 per day, DSS mice, versus peptide inhibitor B or saline) is given as “significantly lower DAI”; in data set [1] (setting [5]), “not significantly different”; in data set [1] (setting [7]), “no difference was observed”. In addition, the “body weight loss at time of killing” value in data set [1] (setting [7]) is listed as “no difference in body weight loss”. The “plasma levels of peptide inhibitor at time of sacrifice” value in data set [3] is given as “inhibitory plasma levels were indeed reached”. For the same substance, the IC50 is 12.5 µM in the data set on MMP-9, 7 µM in the data set on TACE and 17.6 µM with MMP-8. In addition, the “IC50 towards MMP-3” value in the data set on MMP-3 was “No inhibition”.
